What all share (type): toxicity, cell-based
Data set [1] concerns HEK-293T. The experiment in a line: Incucyte cell viability with HEK293T. Conditions: human, 10 µM, compound concentration 10 uM.
In data set [2] the test system is Fibroblast. As to the kind of experiment: Incucyte cell viability with human fibroblast. Conditions: 10 µM, compound concentration 10 uM.
The subject of data set [3] is U2OS. The experiment in a line: Incucyte cell viability with U2OS. Conditions: human, 10 µM, compound concentration 10 uM.
[4] abbreviates: 0 h, replicate number 1, timepoint 0 hours.
The mark [5] stands for this setting: 0 h, replicate number 2, timepoint 0 hours.
[6] abbreviates: 6 h, replicate number 1, timepoint 6 hours.
Setting [7] is: 18 h, replicate number 1, timepoint 18 hours.
The mark [8] stands for this setting: 18 h, replicate number 2, timepoint 18 hours.
Setting [9] is: 24 h, replicate number 1, timepoint 24 hours.
[10] abbreviates: 24 h, replicate number 2, timepoint 24 hours.
Where [11] appears, read: 6 h, replicate number 2, timepoint 6 hours.
[12] abbreviates: 12 h, replicate number 1, timepoint 12 hours.
Setting [13] is: 12 h, replicate number 2, timepoint 12 hours.

These results are taken from ChEMBL document CHEMBL5058564, “EUbOPEN Chemogenomics Library 2 (Incucyte)” (2022).
Further: unitless GR value; below 1 slowed growth and below 0 cell loss.

As for `CCC(=O)NC[C@@H]1C[C@H]1c1cccc2c1CCO2` [TASIMELTEON], the “Growth Rate” value amounted to 0.74 in data set [1] (setting [4]); 0.1 in data set [1] (setting [5]); 0.74 in data set [1] (setting [6]); 0.92 in data set [1] (setting [7]); 0.94 in data set [1] (setting [8]); 0.79 in data set [1] (setting [9]). Also, the “Growth Rate” value in data set [1] (setting [10]) is reported as 0.99; in data set [2] (setting [5]) it was 0.97; in data set [2] (setting [6]) it was 0.35; in data set [2] (setting [11]) it was 0.26; in data set [2] (setting [12]), 0.48; in data set [2] (setting [13]) it was 0.49. Moreover, the “Growth Rate” value in data set [2] (setting [7]) is listed as 0.69; in data set [2] (setting [8]), 0.76; in data set [2] (setting [9]), 0.48; in data set [2] (setting [10]), 0.82; in data set [3] (setting [4]) it was -0.37; in data set [3] (setting [5]), -0.06. The “Growth Rate” value in data set [3] (setting [6]) amounted to 0.85; in data set [3] (setting [11]), 0.51; in data set [3] (setting [12]) it was 0.97; in data set [3] (setting [13]) it was 0.81; in data set [3] (setting [8]) it was 0.96; in data set [3] (setting [10]), 0.96.
With `OCc1cc(C(O)CNCCCCCCOCCCCc2ccccc2)ccc1O` (stereo unspecified) [SALMETEROL], the “Growth Rate” value in data set [1] (setting [6]) stood at 0.2; in data set [1] (setting [11]) it was 0.28; in data set [1] (setting [12]), 0.7; in data set [1] (setting [13]), 0.57; in data set [1] (setting [7]), 0.75; in data set [1] (setting [8]) it was 0.72. The “Growth Rate” value in data set [1] (setting [9]) is 0.7; in data set [1] (setting [10]) it was 0.71; in data set [2] (setting [4]) it was 0.1; in data set [2] (setting [5]), 0.63; in data set [2] (setting [13]), 0.59; in data set [2] (setting [8]) it was 0.72. In addition, the “Growth Rate” value in data set [3] (setting [6]) was 0.56; in data set [3] (setting [12]), 0.56; in data set [3] (setting [13]) it was 0.98; in data set [3] (setting [7]) it was 0.81; in data set [3] (setting [9]), 0.95.
`CC[C@H](NC(=O)c1c(C)c(-c2ccccc2)nc2ccccc12)c1ccccc1` [SB-222200]: the “Growth Rate” value in data set [1] (setting [6]) was 0.76; in data set [1] (setting [11]) it was 0.41; in data set [1] (setting [12]), 0.77; in data set [1] (setting [13]) it was 0.72; in data set [1] (setting [7]), 0.97; in data set [1] (setting [9]), 0.88. For the same compound, the “Growth Rate” value is reported as 0.45 in data set [2] (setting [6]); -0.34 in data set [2] (setting [11]); 0.45 in data set [2] (setting [12]); 0.48 in data set [2] (setting [13]); 0.64 in data set [2] (setting [7]); 0.91 in data set [2] (setting [8]). In addition, the “Growth Rate” value was 0.67 in data set [2] (setting [9]); 0.98 in data set [2] (setting [10]); -1 in data set [3] (setting [5]); 0.93 in data set [3] (setting [13]); 0.84 in data set [3] (setting [8]); 0.93 in data set [3] (setting [10]).
As to `Cl.O=C(O)c1cc(-c2ccc(C3CCNCC3)cc2)c2ccc(-c3ccc(C(F)(F)F)cc3)cc2c1`, the “Growth Rate” value in data set [1] (setting [4]) was -0.99; in data set [1] (setting [5]), -0.98; in data set [1] (setting [12]) it was 0.71; in data set [1] (setting [7]), 0.29; in data set [1] (setting [8]), 0.68; in data set [1] (setting [9]), 0.2. The “Growth Rate” value in data set [1] (setting [10]) is reported as 0.49; in data set [2] (setting [4]) it was -0.16; in data set [2] (setting [5]) it was -0.95; in data set [2] (setting [6]), -0.7; in data set [2] (setting [11]) it was 0.67; in data set [2] (setting [12]) it was -0.12. Moreover, the “Growth Rate” value in data set [2] (setting [13]) was 0.42; in data set [2] (setting [7]), -0.01; in data set [2] (setting [8]), 0.43; in data set [2] (setting [9]) it was 0.06; in data set [2] (setting [10]), 0.23; in data set [3] (setting [6]), 0.77. Moreover, the “Growth Rate” value in data set [3] (setting [11]) came to 0.7; in data set [3] (setting [12]) it was 0.79; in data set [3] (setting [13]), 0.48; in data set [3] (setting [7]), 0.6; in data set [3] (setting [8]), 0.48; in data set [3] (setting [9]) it was 0.6. Besides, the “Growth Rate” value in data set [3] (setting [10]) was 0.44.
Regarding `CC(C)n1cc(-c2ccc(N3CCN(C)CC3)c(NC(=O)c3ccc(-c4ccncc4)o3)c2)cn1`, the “Growth Rate” value is listed as -0.29 in data set [1] (setting [6]); -0.21 in data set [1] (setting [11]); -0.21 in data set [1] (setting [12]); -0.04 in data set [1] (setting [13]); -0.16 in data set [1] (setting [7]); 0.34 in data set [1] (setting [8]). In addition, the “Growth Rate” value in data set [1] (setting [9]) is listed as 0.11; in data set [1] (setting [10]), 0.64; in data set [2] (setting [5]), 0.57; in data set [2] (setting [6]), -0.14; in data set [2] (setting [11]), 0.39; in data set [2] (setting [12]) it was 0.05. Further, the “Growth Rate” value in data set [2] (setting [13]) was 0.57; in data set [2] (setting [7]), -0.06; in data set [2] (setting [8]), 0.81; in data set [2] (setting [9]) it was 0.03; in data set [2] (setting [10]) it was 0.94; in data set [3] (setting [4]), 0.32. The “Growth Rate” value in data set [3] (setting [5]) was -1; in data set [3] (setting [6]) it was -0.04; in data set [3] (setting [12]), 0.36; in data set [3] (setting [7]) it was 0.95.
For `C[C@@H](c1ccc(F)cc1)n1nnc2cnc3ccc(-c4ccc5ocnc5c4)cc3c21`, the “Growth Rate” value in data set [1] (setting [6]) was -0.12; in data set [1] (setting [11]), -0.31; in data set [1] (setting [12]) it was -0.11; in data set [1] (setting [13]), -0.14; in data set [1] (setting [7]), 0.09; in data set [1] (setting [8]), 0.07. The “Growth Rate” value in data set [1] (setting [9]) is given as 0.23; in data set [1] (setting [10]), 0.21; in data set [2] (setting [4]), 0.92; in data set [3] (setting [4]) it was -0.51; in data set [3] (setting [5]), 0.33; in data set [3] (setting [13]) it was 0.94. The “Growth Rate” value in data set [3] (setting [7]) amounted to 0.75; in data set [3] (setting [8]) it was 0.83; in data set [3] (setting [9]) it was 0.51; in data set [3] (setting [10]), 0.82.
`Cc1ccccc1C#Cc1ccc(CCC(=O)O)cc1`: the “Growth Rate” value in data set [1] (setting [5]) is given as 0.37; in data set [1] (setting [6]), 0.63; in data set [1] (setting [11]), 0.81; in data set [1] (setting [12]), 0.72; in data set [1] (setting [13]), 0.75; in data set [1] (setting [7]), 0.73. Also, the “Growth Rate” value in data set [1] (setting [8]) is reported as 0.67; in data set [1] (setting [9]), 0.74; in data set [1] (setting [10]) it was 0.62; in data set [2] (setting [4]), 0.45; in data set [2] (setting [5]) it was 0.93; in data set [2] (setting [11]), 0.07. Also, the “Growth Rate” value in data set [2] (setting [13]) turned out to be 0.32; in data set [2] (setting [8]), 0.35; in data set [2] (setting [10]), 0.31; in data set [3] (setting [4]), 0.25; in data set [3] (setting [6]), 0.52; in data set [3] (setting [11]), 0.9. Moreover, the “Growth Rate” value in data set [3] (setting [12]) came out at 0.67; in data set [3] (setting [7]) it was 0.7; in data set [3] (setting [8]), 0.92; in data set [3] (setting [9]) it was 0.77.
In the case of `N#Cc1c(Oc2cccc(OS(=O)(=O)CCCC(F)(F)F)c2)cccc1C(F)(F)F`, the “Growth Rate” value is -0.16 in data set [1] (setting [6]); 0.24 in data set [1] (setting [11]); 0 in data set [1] (setting [12]); 0.28 in data set [1] (setting [13]); -0.01 in data set [1] (setting [7]); 0.31 in data set [1] (setting [8]). Moreover, the “Growth Rate” value is listed as 0.06 in data set [1] (setting [9]); 0.55 in data set [1] (setting [10]); 0.09 in data set [2] (setting [4]); -0.53 in data set [2] (setting [6]); -0.47 in data set [2] (setting [11]); -0.11 in data set [2] (setting [12]). In addition, the “Growth Rate” value in data set [2] (setting [13]) is given as -0.08; in data set [2] (setting [7]), -0.21; in data set [2] (setting [8]) it was 0.02; in data set [2] (setting [9]) it was -0.18; in data set [2] (setting [10]) it was 0; in data set [3] (setting [5]), 0.57. Besides, the “Growth Rate” value is recorded as 0.86 in data set [3] (setting [12]), 0.82 in data set [3] (setting [13]), 0.81 in data set [3] (setting [8]) and 0.96 in data set [3] (setting [10]).
Take `Cc1nn(C)c(C)c1-c1cccc2c1CC[C@H](N(C)C)C2`: the “Growth Rate” value in data set [1] (setting [5]) turned out to be 0.25; in data set [1] (setting [6]), 0.95; in data set [1] (setting [12]), 0.97; in data set [1] (setting [7]), 0.97; in data set [1] (setting [9]) it was 0.9; in data set [2] (setting [4]), 0.48. The “Growth Rate” value was -0.09 in data set [2] (setting [5]); 0.75 in data set [2] (setting [12]); 0.49 in data set [2] (setting [7]); 0.61 in data set [2] (setting [9]); -0.3 in data set [3] (setting [4]); 0.01 in data set [3] (setting [5]). The “Growth Rate” value was found to be 0.52 in data set [3] (setting [6]); 0.91 in data set [3] (setting [11]); 0.78 in data set [3] (setting [12]); 0.8 in data set [3] (setting [13]); 0.69 in data set [3] (setting [7]); 0.97 in data set [3] (setting [8]). Besides, the figures for the “Growth Rate” value in data set [3] (setting [9]) and in data set [3] (setting [10]) were 0.86 and 0.99, respectively.
